Assay results as given in ChEMBL document CHEMBL1201862, “PubChem BioAssay data set” (2004).
Values belong to the molecule of their own block, whether it stands above or below them. Calls of active or inactive are those of the source.

Legend:
[1] = target: Cytochrome P450 2C19 (Homo sapiens, UniProt P33261); experiment: Cytochrome panel assay with activity outcomes. Panel member name: p450-cyp2c19 Compounds with AC50 equal or less than 10 uM are considered active; assay type: functional; settings: read-out: AC50
[2] = target: T1, Interleukin-8 (Homo sapiens, UniProt P10145); experiment: Dose Response confirmation of uHTS small molecule hits for cystic fibrosis induced NFkb Inhibitors in a PAF-induced IL8 counterscreen.; assay type: functional; settings: read-out: IC50_Mean
T1 sequence (P10145 whole entry): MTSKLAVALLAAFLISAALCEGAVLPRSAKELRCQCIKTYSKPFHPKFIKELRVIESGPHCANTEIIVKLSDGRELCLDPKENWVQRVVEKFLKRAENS

[3] = system: HeLa; experiment: ATP-based viability loss in HeLa cells – cell-based, CellTiter-Glo luminescence, cherry-pick samples, cytotoxicity control for MITF activator project, dose response (AID 540259); assay type: functional; settings: Homo sapiens
[4] = target: T1, Interleukin-8; experiment: Dose Response confirmation of uHTS small molecule hits for cystic fibrosis induced NFkb Inhibitors in a TNFa-induced IL8 counterscreen.; assay type: functional; settings: read-out: IC50_Mean
[5] = target: Beta-galactosidase (Escherichia coli, UniProt Q8VNN2); experiment: PubChem AID 485352; assay type: functional
Beta-galactosidase, sequence (Q8VNN2 whole entry): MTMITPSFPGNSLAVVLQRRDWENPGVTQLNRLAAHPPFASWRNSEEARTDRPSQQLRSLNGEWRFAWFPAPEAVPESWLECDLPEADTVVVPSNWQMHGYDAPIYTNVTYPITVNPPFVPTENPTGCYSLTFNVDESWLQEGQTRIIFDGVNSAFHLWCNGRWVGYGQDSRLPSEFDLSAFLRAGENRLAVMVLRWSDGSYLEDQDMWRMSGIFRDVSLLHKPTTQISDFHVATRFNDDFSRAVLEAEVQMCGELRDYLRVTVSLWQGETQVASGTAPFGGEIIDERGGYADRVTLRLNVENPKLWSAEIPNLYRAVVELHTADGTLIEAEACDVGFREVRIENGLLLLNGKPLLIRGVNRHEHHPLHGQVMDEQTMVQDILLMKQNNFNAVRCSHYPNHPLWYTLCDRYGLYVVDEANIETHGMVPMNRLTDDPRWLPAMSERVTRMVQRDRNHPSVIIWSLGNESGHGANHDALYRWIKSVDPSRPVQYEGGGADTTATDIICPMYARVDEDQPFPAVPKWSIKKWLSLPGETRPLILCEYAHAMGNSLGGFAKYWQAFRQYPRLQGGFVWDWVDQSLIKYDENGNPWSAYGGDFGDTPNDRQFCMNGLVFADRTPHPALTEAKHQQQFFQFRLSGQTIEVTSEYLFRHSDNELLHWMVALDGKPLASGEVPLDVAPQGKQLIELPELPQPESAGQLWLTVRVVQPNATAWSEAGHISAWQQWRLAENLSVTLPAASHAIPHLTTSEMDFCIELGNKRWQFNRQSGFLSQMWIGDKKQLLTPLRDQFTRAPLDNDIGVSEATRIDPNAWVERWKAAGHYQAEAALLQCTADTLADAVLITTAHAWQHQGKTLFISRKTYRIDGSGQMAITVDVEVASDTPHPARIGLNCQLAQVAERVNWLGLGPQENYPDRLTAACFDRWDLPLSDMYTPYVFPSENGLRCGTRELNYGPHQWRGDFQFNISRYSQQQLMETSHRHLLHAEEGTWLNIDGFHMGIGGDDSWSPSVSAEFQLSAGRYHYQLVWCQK

[6] = target: Type-1 angiotensin II receptor (Homo sapiens, UniProt P30556); experiment: antagonism of angiotensin II type 1 receptor – cell-based, uHTS hits, selectivity assay for APJ receptor antagonist project, dose response (AID 463214); assay type: functional;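 further: antagonist potency against angiotensin II stimulated AT1 response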
Type-1 angiotensin II receptor, sequence (P30556 whole entry): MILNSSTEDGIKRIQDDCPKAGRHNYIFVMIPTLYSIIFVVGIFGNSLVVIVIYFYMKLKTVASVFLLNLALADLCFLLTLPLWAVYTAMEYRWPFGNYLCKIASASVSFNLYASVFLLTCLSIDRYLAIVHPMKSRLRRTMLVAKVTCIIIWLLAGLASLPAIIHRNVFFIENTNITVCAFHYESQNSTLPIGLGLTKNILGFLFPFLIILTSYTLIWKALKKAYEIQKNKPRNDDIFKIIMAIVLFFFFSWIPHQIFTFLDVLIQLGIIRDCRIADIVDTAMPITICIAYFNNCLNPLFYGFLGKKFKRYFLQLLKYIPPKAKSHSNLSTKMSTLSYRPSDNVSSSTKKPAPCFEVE

[7] = target: Heat shock protein HSP 90-alpha (Homo sapiens, UniProt P07900); assay type: functional, organism-based
[8] = target: ATP-dependent molecular chaperone HSP82 (Candida albicans (strain WO-1) (Yeast), UniProt C4YTQ8); experiment: steroid-induced GRE reporter decrease in yeast – S. cerevisiae, luminescence, Hsp90 inhibitor project, dose response (AID 2400); assay type: functional, cell-based;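 further: beta-galactosidase luminescence from glucocorticoid response element reporter as proxy for Hsp90 function; inhibitor potency where signal loss means Hsp90 inhibition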
ATP-dependent molecular chaperone HSP82, sequence (C4YTQ8 whole entry): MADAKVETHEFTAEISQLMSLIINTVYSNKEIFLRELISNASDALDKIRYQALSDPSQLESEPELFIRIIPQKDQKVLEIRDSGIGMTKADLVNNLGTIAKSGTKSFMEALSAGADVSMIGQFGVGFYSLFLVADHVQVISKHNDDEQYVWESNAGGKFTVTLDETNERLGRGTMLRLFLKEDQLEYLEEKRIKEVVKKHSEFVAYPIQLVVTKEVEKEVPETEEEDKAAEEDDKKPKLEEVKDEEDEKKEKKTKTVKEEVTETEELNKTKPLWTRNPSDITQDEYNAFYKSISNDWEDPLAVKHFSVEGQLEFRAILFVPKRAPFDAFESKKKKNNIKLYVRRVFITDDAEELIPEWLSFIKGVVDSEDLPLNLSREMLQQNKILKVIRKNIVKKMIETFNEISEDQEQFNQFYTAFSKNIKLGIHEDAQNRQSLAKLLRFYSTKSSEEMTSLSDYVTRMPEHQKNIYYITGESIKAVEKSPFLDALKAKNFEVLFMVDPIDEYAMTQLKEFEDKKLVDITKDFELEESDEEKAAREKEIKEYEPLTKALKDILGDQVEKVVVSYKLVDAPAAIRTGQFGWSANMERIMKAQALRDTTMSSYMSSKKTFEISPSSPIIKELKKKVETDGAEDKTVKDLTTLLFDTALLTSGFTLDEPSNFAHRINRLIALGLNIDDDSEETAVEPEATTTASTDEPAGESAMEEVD

[9] = fluconazole-exposed Candida albicans growth modulators – fluorescence, retest, confirmation (AID 2467); assay type: functional, cell-based
[10] = target: Serine/threonine-protein phosphatase (Candida dubliniensis (strain CD36 / CBS 7987 / NCPF 3949 / NRRLY-17841) (Yeast), UniProt B9W6M3); experiment: blockers of CaCl2-induced CDRE-lacZ signaling – S. cerevisiae, luminescence, secondary, dose response (AID 2388); assay type: functional, cell-based;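 further: yeast reporter cells carrying a calcineurin-responsive lacZ construct stimulated with calcium chloride; luminescent beta-galactosidase reporter signal in whole cells rather than isolated phosphatase activity; potency for inhibition where a drop in reporter signal means calcineurin blockade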
Serine/threonine-protein phosphatase, sequence (B9W6M3 whole entry): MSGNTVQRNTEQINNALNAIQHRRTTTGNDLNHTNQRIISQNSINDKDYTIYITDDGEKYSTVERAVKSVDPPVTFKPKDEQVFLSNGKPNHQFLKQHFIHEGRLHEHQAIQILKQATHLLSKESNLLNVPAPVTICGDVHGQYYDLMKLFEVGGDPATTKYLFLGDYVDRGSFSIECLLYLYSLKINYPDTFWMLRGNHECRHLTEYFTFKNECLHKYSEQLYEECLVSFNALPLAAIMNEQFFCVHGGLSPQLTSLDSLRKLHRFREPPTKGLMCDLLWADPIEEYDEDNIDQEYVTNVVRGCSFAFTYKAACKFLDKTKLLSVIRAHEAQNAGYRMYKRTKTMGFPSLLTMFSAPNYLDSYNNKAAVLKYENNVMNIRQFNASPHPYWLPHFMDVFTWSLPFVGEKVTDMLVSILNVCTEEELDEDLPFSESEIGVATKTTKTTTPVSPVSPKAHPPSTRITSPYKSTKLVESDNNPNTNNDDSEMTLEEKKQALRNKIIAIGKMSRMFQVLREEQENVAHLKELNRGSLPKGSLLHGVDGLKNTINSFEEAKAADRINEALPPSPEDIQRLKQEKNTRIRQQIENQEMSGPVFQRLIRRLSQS

[11] = NIH-3T3 fibroblast cytotoxicity, dose response, cytotoxicity control, cell-based, fluorescence, Alamar Blue, secondary assay (AID 2327); assay type: functional;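 further: NIH-3T3 mouse fibroblasts cultured with fluconazole at 8 µg/mL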
[12] = NIH3T3 cell viability loss – ATP luminescence, mouse fibroblasts, counter-screen, dose response (AID 2010); assay type: functional, cell-based;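 further: cells exposed to compound for about 90 hours before reading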
[13] = target: T2, RNA-binding protein pos-1 (Caenorhabditis elegans, UniProt G5EF15); experiment: disruptors of C. elegans POS-1 RNA interaction – biochemical, fluorescence polarization, dose response (AID 1964);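 further: purified POS-1 fused to maltose binding protein made in E. coli; potency of compounds blocking POS-1 binding to fluorescent RNA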
T2 sequence (G5EF15 whole entry): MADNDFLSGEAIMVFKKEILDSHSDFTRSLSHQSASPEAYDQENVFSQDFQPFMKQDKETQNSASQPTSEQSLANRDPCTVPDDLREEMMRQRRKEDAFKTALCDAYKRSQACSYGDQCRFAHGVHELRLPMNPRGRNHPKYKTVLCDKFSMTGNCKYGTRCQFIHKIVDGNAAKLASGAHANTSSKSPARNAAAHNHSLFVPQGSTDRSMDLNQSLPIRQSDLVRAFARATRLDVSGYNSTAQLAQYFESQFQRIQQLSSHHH

[14] = system: HEK293; experiment: optical interference in Abeta FP readout, dose response, artefact control for IDE activator project, biochemical, fluorescence polarization (AID 588442); assay type: functional, cell-based; settings: Homo sapiens
[15] = Trypanosoma cruzi growth suppression in host cells – NIH3T3 host cells, beta-gal luminescence, confirmation (AID 2044); assay type: functional, cell-based;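 further: intracellular parasites grown in NIH/3T3 mouse fibroblasts as host cells; luminescent beta-galactosidase reporter signal from transgenic T. cruzi replicating inside host cells; inhibitors lower the luminescence signal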
[16] = target: T3, Insulin-degrading enzyme (Homo sapiens, UniProt P14735); experiment: recombinant IDE activation, cell-free – biochemical, fluorescence polarization, counter-screen for IDE activator project, dose response (AID 588681)
T3 sequence (P14735 whole entry): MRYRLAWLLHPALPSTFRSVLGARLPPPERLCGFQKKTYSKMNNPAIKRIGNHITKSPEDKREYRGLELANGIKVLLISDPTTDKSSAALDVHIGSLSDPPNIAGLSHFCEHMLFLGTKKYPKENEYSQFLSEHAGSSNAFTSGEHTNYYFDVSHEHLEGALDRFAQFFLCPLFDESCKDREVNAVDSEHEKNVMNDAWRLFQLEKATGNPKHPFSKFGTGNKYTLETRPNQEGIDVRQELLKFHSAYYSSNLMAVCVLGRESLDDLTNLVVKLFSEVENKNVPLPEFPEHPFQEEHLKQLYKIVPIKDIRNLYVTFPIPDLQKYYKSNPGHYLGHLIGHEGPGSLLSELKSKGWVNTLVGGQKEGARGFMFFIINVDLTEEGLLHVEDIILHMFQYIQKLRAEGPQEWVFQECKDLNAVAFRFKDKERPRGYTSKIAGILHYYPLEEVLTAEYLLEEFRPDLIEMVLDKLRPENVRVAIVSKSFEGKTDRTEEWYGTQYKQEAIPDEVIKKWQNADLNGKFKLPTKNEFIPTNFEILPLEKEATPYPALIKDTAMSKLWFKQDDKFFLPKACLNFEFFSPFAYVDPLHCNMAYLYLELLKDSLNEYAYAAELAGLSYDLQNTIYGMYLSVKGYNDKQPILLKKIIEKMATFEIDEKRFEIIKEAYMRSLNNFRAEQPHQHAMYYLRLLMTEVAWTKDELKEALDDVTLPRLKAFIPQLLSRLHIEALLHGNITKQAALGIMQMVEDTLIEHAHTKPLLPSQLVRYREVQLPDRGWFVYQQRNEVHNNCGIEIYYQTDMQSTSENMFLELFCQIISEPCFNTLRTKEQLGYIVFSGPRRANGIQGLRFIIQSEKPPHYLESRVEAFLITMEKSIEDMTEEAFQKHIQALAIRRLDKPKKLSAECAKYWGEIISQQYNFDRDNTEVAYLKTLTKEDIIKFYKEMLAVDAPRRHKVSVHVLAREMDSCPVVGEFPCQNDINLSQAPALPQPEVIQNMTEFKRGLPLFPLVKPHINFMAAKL

[17] = system: HEK293; experiment: membrane integrity loss in HEK cells – cell-based, fluorescence, cytotoxicity control for IDE activator project, dose response (AID 588440); assay type: functional; settings: Homo sapiens;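 further: cytotoxicity by LDH release measuring loss of membrane integrity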
[18] = cells; assay type: functional, cell-based
[19] = cells; assay type: functional, cell-based; remark: listed apart in the source
[20] = HEK-293T viability loss after treatment – luminescence, T-cell screen hits, cytotoxicity control for TCR NF-kB inhibitor project, dose response (AID 489026); assay type: functional, cell-based;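 further: cells exposed to compound about 14 hours before the viability readout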
[21] = target: T3, Insulin-degrading enzyme; experiment: cellular IDE activation of Abeta substrate cleavage – fluorescence polarization, HEK cells, dose response (AID 588439); assay type: functional, cell-based
[22] = system: Streptococcus; experiment: GAS UMAA2166 growth inhibition – luminescence, BacTiterGlo, counter-screen for streptokinase expression inhibitor project, dose response (AID 1915); assay type: functional, organism-based;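 further: potency for reduction of bacterial viability or growth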
[23] = system: Streptococcus sp. 'group A'; experiment: Streptococcus pyogenes SK(-)GAS viability under kanamycin – luminescence, BacTiterGlo, confirmation, counter-screen for streptokinase expression inhibitor project, dose response (AID 1900); assay type: functional, organism-based
[24] = target: Protein disulfide-isomerase (Homo sapiens, UniProt P07237); experiment: inhibition of PDI-driven insulin aggregation – biochemical, turbidity, absorbance, cherry-picked samples, dose response (AID 602350); assay type: functional
Protein disulfide-isomerase, sequence (P07237 whole entry): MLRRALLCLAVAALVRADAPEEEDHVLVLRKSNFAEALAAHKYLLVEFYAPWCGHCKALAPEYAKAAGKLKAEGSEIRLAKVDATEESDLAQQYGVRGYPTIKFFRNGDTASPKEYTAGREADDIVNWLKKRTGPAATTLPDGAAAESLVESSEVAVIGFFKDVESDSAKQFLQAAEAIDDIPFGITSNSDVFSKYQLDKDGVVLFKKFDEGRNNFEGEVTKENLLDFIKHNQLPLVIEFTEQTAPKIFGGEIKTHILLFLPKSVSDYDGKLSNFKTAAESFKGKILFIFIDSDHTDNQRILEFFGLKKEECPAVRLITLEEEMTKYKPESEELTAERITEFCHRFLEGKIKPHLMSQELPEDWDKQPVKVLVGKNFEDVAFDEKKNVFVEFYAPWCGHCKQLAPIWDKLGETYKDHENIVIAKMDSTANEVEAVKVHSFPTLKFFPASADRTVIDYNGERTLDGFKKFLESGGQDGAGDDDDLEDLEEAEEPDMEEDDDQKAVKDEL

[25] = target: Diacylglycerol lipase-beta (Mus musculus, UniProt Q91WC9); experiment: Late stage assay provider results from the probe development effort to identify inhibitors of diacylglycerol lipase, beta (DAGLb): fluorescence-based dose-response biochemical gel-based competitive Activity-Based Protein Profiling (ABPP) inhibition of DAGLb in vitro.; assay type: functional
[26] = target: Protein Wnt-3a (Mus musculus, UniProt P27467); experiment: antagonism of Wnt3a pathway luciferase reporter – Wnt-LIGHT cells, luminescence, selectivity assay for Gli-SUFU antagonist project, dose response (AID 651570); assay type: functional; settings: read-out: IC50_Mean;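 further: Wnt-LIGHT reporter cells stimulated with conditioned medium from Wnt3a-producing cells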
Protein Wnt-3a, sequence (P27467 whole entry): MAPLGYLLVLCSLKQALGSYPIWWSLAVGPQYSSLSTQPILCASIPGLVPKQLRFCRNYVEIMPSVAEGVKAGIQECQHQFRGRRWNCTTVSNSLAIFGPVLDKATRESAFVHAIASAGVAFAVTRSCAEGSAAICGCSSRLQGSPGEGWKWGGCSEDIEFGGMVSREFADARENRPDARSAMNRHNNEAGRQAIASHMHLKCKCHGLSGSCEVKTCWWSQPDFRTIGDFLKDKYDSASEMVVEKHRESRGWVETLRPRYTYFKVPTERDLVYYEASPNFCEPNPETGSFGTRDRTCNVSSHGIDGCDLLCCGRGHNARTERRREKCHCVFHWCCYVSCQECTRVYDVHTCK

[27] = target: Aryl hydrocarbon receptor (Homo sapiens, UniProt P35869); settings: Potency;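 further: confirmatory quantitative high-throughput screen measuring activation of the AhR signaling pathway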
[28] = target: Voltage-gated inwardly rectifying potassium channel KCNH2 (Homo sapiens, UniProt Q12809); settings: Potency;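 further: confirmatory quantitative high-throughput screen measuring inhibition of hERG channel activity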
Voltage-gated inwardly rectifying potassium channel KCNH2, sequence (Q12809 whole entry): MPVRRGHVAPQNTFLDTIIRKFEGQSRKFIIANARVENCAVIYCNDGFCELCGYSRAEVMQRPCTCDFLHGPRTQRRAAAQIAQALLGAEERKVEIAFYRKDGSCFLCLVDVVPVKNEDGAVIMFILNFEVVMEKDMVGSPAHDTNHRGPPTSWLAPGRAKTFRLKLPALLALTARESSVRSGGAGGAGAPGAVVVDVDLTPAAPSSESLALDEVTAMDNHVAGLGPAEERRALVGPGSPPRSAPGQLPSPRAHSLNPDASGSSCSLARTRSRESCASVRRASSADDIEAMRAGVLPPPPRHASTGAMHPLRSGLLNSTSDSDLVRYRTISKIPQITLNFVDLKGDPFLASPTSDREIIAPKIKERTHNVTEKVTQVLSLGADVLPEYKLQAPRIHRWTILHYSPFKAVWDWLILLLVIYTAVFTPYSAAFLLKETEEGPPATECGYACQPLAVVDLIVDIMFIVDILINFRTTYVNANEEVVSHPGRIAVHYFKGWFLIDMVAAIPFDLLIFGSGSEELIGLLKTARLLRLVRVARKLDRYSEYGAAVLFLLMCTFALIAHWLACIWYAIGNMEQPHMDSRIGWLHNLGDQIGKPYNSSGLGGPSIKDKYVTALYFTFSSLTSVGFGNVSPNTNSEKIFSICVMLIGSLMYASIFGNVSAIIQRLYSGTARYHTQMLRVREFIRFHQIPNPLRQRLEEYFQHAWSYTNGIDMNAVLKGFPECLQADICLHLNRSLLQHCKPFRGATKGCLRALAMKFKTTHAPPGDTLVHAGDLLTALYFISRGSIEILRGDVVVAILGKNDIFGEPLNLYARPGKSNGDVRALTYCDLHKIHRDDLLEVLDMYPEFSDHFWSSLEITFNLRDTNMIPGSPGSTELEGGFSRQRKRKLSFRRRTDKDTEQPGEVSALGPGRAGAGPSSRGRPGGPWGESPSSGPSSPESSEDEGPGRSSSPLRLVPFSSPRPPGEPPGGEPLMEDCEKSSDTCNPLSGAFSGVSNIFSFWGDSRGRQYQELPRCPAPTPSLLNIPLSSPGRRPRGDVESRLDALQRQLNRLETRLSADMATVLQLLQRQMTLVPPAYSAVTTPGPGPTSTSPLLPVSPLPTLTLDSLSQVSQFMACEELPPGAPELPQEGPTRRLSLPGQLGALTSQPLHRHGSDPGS

SMILES: O=C(Nc1cccc2[nH]ncc12)c1ccc(F)cc1
AC50 [1]: 14.1 µM (inconclusive)
IC50 [2]: 13.8 µM (inactive)
AC50 [3]: 52.8 µM (active)
IC50 [4]: > 79 µM (inactive)

EC50 [5]: > 40 µM (inactive)
IC50 [6]: 38.1 µM (not active)
SMILES: O=C(CNS(=O)(=O)c1ccccc1)OCC(=O)c1cccc([N+](=O)[O-])c1

SMILES: C=CCc1c(C)c(C#N)c2nc3ccccc3n2c1NCCN(C)C
AC50 [7]: 4.45 µM (active)
EC50 [8]: > 150 µM (inactive)
EC50 [9]: 1.27 µM (active)
EC50 [10]: > 180 µM (inactive)
EC50 [11]: > 160 µM (inactive)

SMILES: O=C(N/N=C\c1c(O)ccc2ccccc12)c1cncc(Br)c1
EC50 [12]: 7.07 µM (active)
EC50 [13]: > 300 µM (not active)
EC50 [14]: 12.4 µM (inactive)
EC50 [15]: 0.792 µM (active)
AC50 [7]: 4.06 µM (active)
EC50 [16]: > 54.7 µM (inactive)
IC50 [17]: > 89.3 µM (inactive)
EC50 [9]: 0.342 µM (active)
EC50 [18]: 10.3 µM (active)
EC50 [19]: 86.8 µM (active)
IC50 [20]: > 80 µM (inactive)
EC50 [21]: > 54.7 µM (inactive)
EC50 [11]: 8.52 µM (inconclusive)
EC50 [22]: 3.59 µM (active)
EC50 [23]: 1.4 µM (active)

SMILES: C[C@@H]1O[C@@H](Oc2c(-c3ccc(O)c(O)c3)oc3cc(O)cc(O)c3c2=O)[C@H](O)[C@H](O)[C@H]1O
AC50 [24]: 5.59 µM (active)

IC50 [25]: 0.058 µM (active)
SMILES: O=C(N1CCCCC1Cc1ccccc1)n1cc(-c2ccc(-c3ccccc3C(F)(F)F)cc2)nn1 (stereo unspecified)

IC50 [26]: 14.1 µM (active)
SMILES: Cc1cc(Nc2ccc([N+](=O)[O-])cc2)c2ccccc2n1

SMILES: CCCCOCC1CO1 (stereo unspecified)
AC50 [27]: 56.2 µM (inconclusive)

SMILES: CCOC(=O)C1=C(C)NC(C)=C(C(=O)OC)C1c1cccc(Cl)c1Cl (stereo unspecified) [FELODIPINE]
AC50 [28]: 20 µM (inconclusive)
